The values that follow come from PubChem BioAssay AID1259407 (Chemical Carcinogenesis Research Information System (CCRIS), 2018).

Each structure is given as a SMILES string. Active and inactive are the calls of the source. No rule for the calls is given here.

In the data set the test system is CCRIS mutagenicity, Ames/micronucleus/aberration tests. The data set can be described thus: CCRIS mutagenicity studies.
The mark [1] stands for this setting: Test System: AMES SALMONELLA TYPHIMURIUM, Strain/Indicator: TA98, Metabolic Activation: NONE, Method: STANDARD PLATE.
Where [2] appears, read: Test System: AMES SALMONELLA TYPHIMURIUM, Strain/Indicator: TA100, Metabolic Activation: NONE, Method: STANDARD PLATE.
Where [3] appears, read: Test System: AMES SALMONELLA TYPHIMURIUM, Strain/Indicator: TA98, Metabolic Activation: NONE, Method: PREINCUBATION
Setting [4] is: Test System: AMES SALMONELLA TYPHIMURIUM, Strain/Indicator: TA100, Metabolic Activation: NONE, Method: PREINCUBATION
Where [5] appears, read: Test System: AMES SALMONELLA TYPHIMURIUM, Strain/Indicator: TA1535, Metabolic Activation: NONE, Method: PREINCUBATION

In the case of `CC(=O)CC(C)(C)O`, the mutagenic call is “inactive; negative” (Test System: AMES SALMONELLA TYPHIMURIUM, Strain/Indicator: TA98, Metabolic Activation: HAMSTER, LIVER, S-9, AROCLOR 1254, Method: STANDARD PLATE); “inactive; negative” under setting [1]; “inactive; negative” (Test System: AMES SALMONELLA TYPHIMURIUM, Strain/Indicator: TA98, Metabolic Activation: RAT, LIVER, S-9, AROCLOR 1254, Method: STANDARD PLATE); “inactive; negative” (Test System: AMES SALMONELLA TYPHIMURIUM, Strain/Indicator: TA100, Metabolic Activation: HAMSTER, LIVER, S-9, AROCLOR 1254, Method: STANDARD PLATE); “inactive; negative” under setting [2]; “inactive; negative” (Test System: AMES SALMONELLA TYPHIMURIUM, Strain/Indicator: TA100, Metabolic Activation: RAT, LIVER, S-9, AROCLOR 1254, Method: STANDARD PLATE). In addition, the mutagenic call (Test System: AMES SALMONELLA TYPHIMURIUM, Strain/Indicator: TA1535, Metabolic Activation: HAMSTER, LIVER, S-9, AROCLOR 1254, Method: STANDARD PLATE) is “inactive; negative”; the mutagenic call (Test System: AMES SALMONELLA TYPHIMURIUM, Strain/Indicator: TA1535, Metabolic Activation: NONE, Method: STANDARD PLATE) was “inactive; negative”; the mutagenic call (Test System: AMES SALMONELLA TYPHIMURIUM, Strain/Indicator: TA1535, Metabolic Activation: RAT, LIVER, S-9, AROCLOR 1254, Method: STANDARD PLATE) is “inactive; negative”; the mutagenic call (Test System: AMES SALMONELLA TYPHIMURIUM, Strain/Indicator: TA1537, Metabolic Activation: HAMSTER, LIVER, S-9, AROCLOR 1254, Method: STANDARD PLATE) was “inactive; negative”; the mutagenic call (Test System: AMES SALMONELLA TYPHIMURIUM, Strain/Indicator: TA1537, Metabolic Activation: NONE, Method: STANDARD PLATE) is “inactive; negative”; the mutagenic call (Test System: AMES SALMONELLA TYPHIMURIUM, Strain/Indicator: TA1537, Metabolic Activation: RAT, LIVER, S-9, AROCLOR 1254, Method: STANDARD PLATE) is “inactive; negative”. In addition, the mutagenic call is “inactive; negative” (Test System: AMES SALMONELLA TYPHIMURIUM, Strain/Indicator: TA1538, Metabolic Activation: HAMSTER, LIVER, S-9, AROCLOR 1254, Method: STANDARD PLATE); “inactive; negative” (Test System: AMES SALMONELLA TYPHIMURIUM, Strain/Indicator: TA1538, Metabolic Activation: NONE, Method: STANDARD PLATE); “inactive; negative” (Test System: AMES SALMONELLA TYPHIMURIUM, Strain/Indicator: TA1538, Metabolic Activation: RAT, LIVER, S-9, AROCLOR 1254, Method: STANDARD PLATE); “inactive; negative” (Test System: Mouse lymphoma, Strain/Indicator: L5178Y (tk+/tk-), Metabolic Activation: None, Method: Suspension/plate); “inactive; negative” (Test System: Mouse lymphoma, Strain/Indicator: L5178Y (tk+/tk-), Metabolic Activation: Rat, Liver, S-9, Aroclor 1254, Method: Suspension/plate).

For the molecule `CCC(C)c1ccc(/C=C/c2ccc([N+](=O)[O-])cc2)cc1` (stereo unspecified), the mutagenic call under setting [1] is “active; positive”; the mutagenic call (Test System: AMES SALMONELLA TYPHIMURIUM, Strain/Indicator: TA98, Metabolic Activation: RAT, LIVER, S-9, AROCLOR, Method: STANDARD PLATE) was “active; positive”; the mutagenic call under setting [2] is “inactive; negative”; the mutagenic call (Test System: AMES SALMONELLA TYPHIMURIUM, Strain/Indicator: TA100, Metabolic Activation: RAT, LIVER, S-9, AROCLOR, Method: STANDARD PLATE) was “active; positive”.

Regarding `O=Nc1ccc(O)cc1`, the mutagenic call is, setting by setting: (Test System: AMES SALMONELLA TYPHIMURIUM, Strain/Indicator: TA97, Metabolic Activation: HAMSTER, LIVER, S-9, AROCLOR 1254 (10 OR 30%), Method: PREINCUBATION) “inactive; negative”; (Test System: AMES SALMONELLA TYPHIMURIUM, Strain/Indicator: TA97, Metabolic Activation: NONE, Method: PREINCUBATION) “inactive; negative”; (Test System: AMES SALMONELLA TYPHIMURIUM, Strain/Indicator: TA97, Metabolic Activation: RAT, LIVER, S-9, AROCLOR 1254 (10 OR 30%), Method: PREINCUBATION) “inactive; negative”; (Test System: AMES SALMONELLA TYPHIMURIUM, Strain/Indicator: TA98, Metabolic Activation: HAMSTER, LIVER, S-9, AROCLOR 1254 (10%), Method: PREINCUBATION) “inactive; negative”; (Test System: AMES SALMONELLA TYPHIMURIUM, Strain/Indicator: TA98, Metabolic Activation: HAMSTER, LIVER, S-9, AROCLOR 1254 (30%), Method: PREINCUBATION) “active; positive”; under setting [3], “active; positive”. The mutagenic call by setting is: (Test System: AMES SALMONELLA TYPHIMURIUM, Strain/Indicator: TA98, Metabolic Activation: RAT, LIVER, S-9, AROCLOR 1254 (10 OR 30%), Method: PREINCUBATION) “inactive; negative”; (Test System: AMES SALMONELLA TYPHIMURIUM, Strain/Indicator: TA100, Metabolic Activation: HAMSTER, LIVER, S-9, AROCLOR 1254 (10%), Method: PREINCUBATION) “inactive; negative”; (Test System: AMES SALMONELLA TYPHIMURIUM, Strain/Indicator: TA100, Metabolic Activation: HAMSTER, LIVER, S-9, AROCLOR 1254 (30%), Method: PREINCUBATION) “active; positive”; under setting [4], “inactive; negative”; (Test System: AMES SALMONELLA TYPHIMURIUM, Strain/Indicator: TA100, Metabolic Activation: RAT, LIVER, S-9, AROCLOR 1254 (10 OR 30%), Method: PREINCUBATION) “inactive; negative”; (Test System: AMES SALMONELLA TYPHIMURIUM, Strain/Indicator: TA1535, Metabolic Activation: HAMSTER, LIVER, S-9, AROCLOR 1254 (10%), Method: PREINCUBATION) “inactive; negative”. The mutagenic call under setting [5] is “inactive; negative” and the mutagenic call (Test System: AMES SALMONELLA TYPHIMURIUM, Strain/Indicator: TA1535, Metabolic Activation: RAT, LIVER, S-9, AROCLOR 1254 (10%), Method: PREINCUBATION) was “inactive; negative”.

As to `CC(CO)(CO)CO`, the mutagenic call by setting is: under setting [3], “inactive; negative”; (Test System: AMES SALMONELLA TYPHIMURIUM, Strain/Indicator: TA98, Metabolic Activation: RAT LIVER S-9, PHENOBARBITAL AND BETA-NAPHTHOFLAVONE, Method: PREINCUBATION) “inactive; negative”; under setting [4], “inactive; negative”; (Test System: AMES SALMONELLA TYPHIMURIUM, Strain/Indicator: TA100, Metabolic Activation: RAT LIVER S-9, PHENOBARBITAL AND BETA-NAPHTHOFLAVONE, Method: PREINCUBATION) “inactive; negative”; under setting [5], “inactive; negative”; (Test System: AMES SALMONELLA TYPHIMURIUM, Strain/Indicator: TA1535, Metabolic Activation: RAT LIVER S-9, PHENOBARBITAL AND BETA-NAPHTHOFLAVONE, Method: PREINCUBATION) “inactive; negative”. Also, the mutagenic call (Test System: AMES SALMONELLA TYPHIMURIUM, Strain/Indicator: TA1537, Metabolic Activation: NONE, Method: PREINCUBATION) was “inactive; negative”; the mutagenic call (Test System: AMES SALMONELLA TYPHIMURIUM, Strain/Indicator: TA1537, Metabolic Activation: RAT LIVER S-9, PHENOBARBITAL AND BETA-NAPHTHOFLAVONE, Method: PREINCUBATION) is “inactive; negative”; the mutagenic call (Test System: E.COLI, Strain/Indicator: WP2UVRA/PKM101, Metabolic Activation: NONE, Method: PREINCUBATION) was “inactive; negative”; the mutagenic call (Test System: E.COLI, Strain/Indicator: WP2UVRA/PKM101, Metabolic Activation: RAT LIVER S-9, PHENOBARBITAL AND BETA-NAPHTHOFLAVONE, Method: PREINCUBATION) is “inactive; negative”.

For `C/C=C(\C)C(=O)O[C@H]1C[C@@H](OC(C)=O)[C@@]2(C(=O)OC)CO[C@H]3[C@@H](O)[C@@](C)([C@]45O[C@@]4(C)[C@H]4C[C@@H]5O[C@@H]5OC=C[C@@]54O)[C@H]4[C@]1(CO[C@]4(O)C(=O)OC)[C@@H]32`, the mutagenic call was “inactive; negative” (End Point: IN VIVO CHROMOSOMAL ABERRATIONS, Test System: BONE MARROW, Species: MOUSE, Strain/Sex: SWR/J/MALE,FEMALE, Route: ORAL (GAVAGE)) and “active; positive (structural changes)” (End Point: In vivo chromosomal aberrations, Test System: Bone marrow cells, Species: Mouse, Strain/Sex: Swiss/Male, Route: Oral).

On to `CNc1nncc2ccccc12`, for which the mutagenic call was “active; positive” under setting [2]; “active; positive” (Test System: AMES SALMONELLA TYPHIMURIUM, Strain/Indicator: TA100, Metabolic Activation: RAT, LIVER, S-9, PHENOBARBITAL, Method: STANDARD PLATE); “active; positive” (Test System: UDS RAT HEPATOCYTES, Strain/Indicator: THY INCORP, Metabolic Activation: NONE, Method: AUTORADIOGRAPHY); “inactive; negative” (Test System: UDS RODENT HEPATOCYTES, Strain/Indicator: THY INCORP (NON-S-PHASE), Metabolic Activation: HOST-MEDIATED, Method: IN VIVO-IN VITRO).
